The record followed here is publication PMC3905752 (Nature chemical biology, 2013).

Holding throughout (type): biochemical
Assay [1] deals with ubiquitin~Cdc34A thioester (Homo sapiens, UniProt P0CG48+P49427, K48R). Briefly: Spontaneous hydrolysis of the ubiquitin~Cdc34A^FL thioester. To be noted: 100 μM CC0651.
Assay [2] deals with Cdc34A^Glu133Arg (Homo sapiens, UniProt P49427, E133R). Briefly: Sic1-SCF^Cdc4 ubiquitination assay with Cdc34A^Glu133Arg mutant. The following applies: Cdc34A^Glu133Arg mutant with Ub^Arg42Glu mutant.
The target in assay [3] is T1, Cdc34A^Glu133Arg (Homo sapiens, UniProt P49427, E133R).
T1 sequence (P49427 1-236 E133R): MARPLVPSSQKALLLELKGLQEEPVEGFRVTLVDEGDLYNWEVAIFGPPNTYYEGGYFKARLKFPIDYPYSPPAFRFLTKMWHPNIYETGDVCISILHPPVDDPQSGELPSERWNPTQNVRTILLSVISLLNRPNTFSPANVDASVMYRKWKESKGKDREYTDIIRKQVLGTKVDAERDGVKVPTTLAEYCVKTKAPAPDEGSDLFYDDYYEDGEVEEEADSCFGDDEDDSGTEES
Described as above. To be noted: Cdc34A^Glu133Arg mutant, wild type ubiquitin.

For the compound `COCC(=O)N[C@@H](Cc1ccc(-c2cc(Cl)cc(Cl)c2)cc1)[C@H](O)[C@@H](O)C(=O)O` [CC0651, (2R,3S,4S)-5-(3′,5′-Dichloro-[1,1′-biphenyl]-4-yl)-2,3-dihydroxy-4-(2 methoxyacetamido)pentanoic acid], in assay [1], the “Effect on hydrolysis of the ubiquitin~Cdc34A thioester to water” value is on record as “inhibited”. The “Sensitivity of Sic1 ubiquitination to CC0651” value is “restored” on Cdc34A^Glu133Arg [2] and “insensitivity” at Cdc34A^Glu133Arg [3].
